Measured values from patent US20250082763A1, “COMBINATION DRUG FOR TREATING TRIPLE-NEGATIVE BREAST CANCER” (HINOVA PHARMACEUTICALS INC., priority 2022, published 2025).
pIC50: −log10 of the molar value.

Key:
Format in all cases: cell-based
[1] = test system: MDA-MB-453 cells; test: Inhibition of proliferation of MDA-MB-453 cells (CCK-8 or CTG, 7-10 days); conditions: Homo sapiens, co-incubation 7-10 days, CCK-8 or CTG, read-out: IC50 values against MDA-MB-453 cells
Description: Triple negative breast cancer MDA-MB-453 cells in logarithmic growth stage were inoculated into a 96-well plate at a concentration of 4×10^3 cells/well, and then incubated in an incubator at 37° C., 5% CO2, and saturated humidity for 24 h or 48 h. To the negative control well, was added RPMI 1640 cell medium containing 10% fetal bovine serum in the same volume as the drug. After cultured for 24 h or 48 h, to the 96-well plate, were added AR PROTACs compounds 162, 177, 230, 259, 279, 281, 282, 325, 357, 400, ARV-110, ARV-766 and AR inhibitor HC-1119, respectively. The concentrations of compounds 177, 230, 259, 279, 281, 282, 325, 357, 400, ARV-110, and ARV-766 are 0 μM, 0.002 μM, 0.005 μM, 0.014 μM, 0.041 μM, 0.123 μM, 0.370 μM, 1.111 μM, 3.333 μM or 10 μM; while the concentrations of HC-1119 are 0 μM, 1.23 μM, 3.70 μM, 11.11 μM, 33.33 μM or 100 μM.
(§1) After addition of the drugs and co-incubation for 7-10 days, 10 μL of CCK-8 was added to each well, and then the plate was further cultured for 2 h. The absorbance value (OD) of each well was measured using a microplate reader at a wavelength of 450 nm. The survival rate was calculated using Prism software, the relative survival rate=(OD value of drug well/OD value of control well)×100%. Alternatively, 100 μL of medium was removed from each well, and then 50 μL of CTG was added. The plate was shaken in the dark for 2 min, allowed to stand for 10 min, and then measured using a microplate reader in Luminescence mode. Prism software was used to calculate the survival rate, the relative survival rate=(the RLU value of drug well/the RLU value of control well)×100%.

[2] = test system: MFM-223; test: Antiproliferation, CellTiter-Glo, 5 days, MFM-223; conditions: Homo sapiens, 120 h, MFM-223, AR+ TNBC
Description: (§2) For MDA-MB-453, MFM-223, SUM159PT, MDA-MB-468, and HCC1937, 4,000, 3,000, 1,000, 3,000, and 3,000 cells were plated per well in 96-well microplates (Corning Inc), respectively. Cells were treated with serial dilutions of tested compounds with the maximum working concentration of 10 μM. Cell survival was measured 5 days later using a CellTiter-Glo luminescent cell viability assay kit (Promega Corporation). Luminescence was recorded by FLUOstar Omega microplate reader (BMG Labtech). Half maximal inhibitory concentration (IC50) was determined with GraphPad Prism using baseline correction (by normalizing to dimethyl sulfoxide (DMSO) control)

[3] = test system: MDA-MB-468; test: Antiproliferation, CellTiter-Glo, 5 days, MDA-MB-468; conditions: Homo sapiens, 120 h, MDA-MB-468, AR− TNBC
Description: as §2

[4] = test system: MDA-MB-453 cells; test: Combination with PI3K inhibitor Alpelisib, proliferation of MDA-MB-453 cells, Combination Index; conditions: molar ratio to Alpelisib 1:27-9:1, 7 days
Description: (§3) Triple negative breast cancer MDA-MB-453 cells in logarithmic growth stage were inoculated into a 96-well plate at a concentration of 4×10^3 cells/well, and then incubated in an incubator at 37° C., 5% CO2, and saturated humidity for 24 h. To the negative control wells, were added RPMI 1640 cell culture medium containing 10% fetal bovine serum in the same volume as the drug. After cultured for 24 h, to the 96-well plate, were sequentially added AR PROTACs compounds 279, 281, 282, ARV-110, ARV-766 and PI3K inhibitor Alpelisib, respectively.
as §1, with “7” for “7-10”

[5] = test system: MDA-MB-453 cells; test: Combination with PI3K inhibitor Idelalisib, proliferation of MDA-MB-453 cells, Combination Index; conditions: molar ratio to Idelalisib 1:270-1:3.333, 7-10 days
Description: as §3, with “Idelalisib,” for “Alpelisib,”
as §1, with “adding” for “addition of”, “co-incubating” for “co-incubation”

N#Cc1ccc(O[C@H]2CC[C@H](NC(=O)c3cnc(N4CCC(CN5CCC6(CC5)CN(c5ccc7c(c5)C(=O)N(C5CCC(=O)NC5=O)C7=O)C6)CC4)nn3)CC2)cc1Cl (stereo partly shown) [Compound 279]
pIC50 [1]: ≥ 5.70
pIC50 [2]: 6.34
pIC50 [3]: < 5.00
effect of the combination with Alpelisib on inhibiting proliferation (CI<1 = synergistic) [4]: synergistic effect
effect of the combination with Idelalisib on inhibiting proliferation (CI<1 = synergistic) [5]: synergistic effect

N#Cc1ccc(O[C@H]2CC[C@H](NC(=O)c3ccc(N4CCC(CN5CCN(c6cc7c(cc6F)C(=O)N(C6CCC(=O)NC6=O)C7=O)CC5)CC4)nn3)CC2)cc1Cl (stereo partly shown) [ARV-110, reference compound]
pIC50 [1]: ≥ 5.70
pIC50 [2]: 5.40
pIC50 [3]: < 5.00
effect of the combination with Alpelisib on inhibiting proliferation (CI<1 = synergistic) [4]: synergistic effect
effect of the combination with Idelalisib on inhibiting proliferation (CI<1 = synergistic) [5]: synergistic effect
